Test results as given in US20090111801A1, “SUBSTITUTED PYRAZINONE DERIVATIVES FOR USE AS A MEDICINE” (Janssen Pharmaceutica N.V., priority 2006, published 2009).

What was measured:
[1] = molecular target: T1, hα2A receptor (Homo sapiens, UniProt P08913); experiment: Radioligand binding experiment for α2A-adrenoceptor ([3H]raulwolscine, CHO cell membranes); conditions: [3H]raulwolscine binding; for IC50: read-out: h-α2A pIC50 (converted)
T1 construct: expressed in transfected cells; host or cells: CHO cells, stably transfected; membrane preparation
T1 sequence (P08913 1-465): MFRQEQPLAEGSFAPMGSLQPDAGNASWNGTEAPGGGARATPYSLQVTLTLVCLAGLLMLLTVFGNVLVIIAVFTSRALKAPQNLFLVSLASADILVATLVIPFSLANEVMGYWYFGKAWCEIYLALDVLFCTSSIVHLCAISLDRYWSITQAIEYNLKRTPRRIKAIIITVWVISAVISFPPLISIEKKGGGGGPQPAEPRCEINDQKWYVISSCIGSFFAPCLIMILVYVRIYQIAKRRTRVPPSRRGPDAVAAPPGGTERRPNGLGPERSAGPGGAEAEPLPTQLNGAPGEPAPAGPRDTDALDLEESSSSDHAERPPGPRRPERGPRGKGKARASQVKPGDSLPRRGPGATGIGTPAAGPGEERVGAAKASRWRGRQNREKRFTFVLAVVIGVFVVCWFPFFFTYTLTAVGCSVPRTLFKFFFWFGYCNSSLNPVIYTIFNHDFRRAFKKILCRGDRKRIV

[2] = molecular target: T2, hα2C receptor (Homo sapiens, UniProt P18825); experiment: Radioligand binding experiment for α2C-adrenoceptor ([3H]raulwolscine, CHO cell membranes); conditions: [3H]raulwolscine binding; for IC50: read-out: h-α2C pIC50 (converted)
T2 construct: expressed in transfected cells; host or cells: CHO cells, stably transfected; membrane preparation
T2 sequence (P18825 1-462): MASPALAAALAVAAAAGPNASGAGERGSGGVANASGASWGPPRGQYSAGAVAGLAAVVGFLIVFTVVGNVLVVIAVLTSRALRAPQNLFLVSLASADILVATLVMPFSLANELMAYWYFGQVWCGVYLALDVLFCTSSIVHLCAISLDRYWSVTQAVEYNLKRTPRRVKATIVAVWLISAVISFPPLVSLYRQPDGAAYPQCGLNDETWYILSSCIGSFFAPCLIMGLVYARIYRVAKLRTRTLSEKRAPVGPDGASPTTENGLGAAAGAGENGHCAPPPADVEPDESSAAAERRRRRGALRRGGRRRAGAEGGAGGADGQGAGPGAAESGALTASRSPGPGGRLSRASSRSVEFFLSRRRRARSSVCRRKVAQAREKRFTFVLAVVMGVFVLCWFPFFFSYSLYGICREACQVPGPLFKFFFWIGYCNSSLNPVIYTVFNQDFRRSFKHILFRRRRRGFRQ

[3] = molecular target: T3, 5HT-Transporter (Homo sapiens, UniProt P31645); experiment: Binding experiment for the 5HT-transporter ([3H]paroxetine, human platelet membranes); conditions: [3H]paroxetine 0.5 nM; for IC50: read-out: h-5HTT pIC50 (converted)
T3 construct: Human platelet membranes (Oceanix Biosciences Corporation, Hanover, Md., USA) were thawed; tissue Oceanix Biosciences Corporation, Hanover, Md., USA; host or cells: human platelet membranes
Summary of the method: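 Filter-bound radioactivity from human platelet membranes incubated with [3H]paroxetine and test compound (buffer Tris-HCl 50 mM, 120 mM NaCl, 5 mM KCl) was counted.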

T3 sequence (P31645 whole entry): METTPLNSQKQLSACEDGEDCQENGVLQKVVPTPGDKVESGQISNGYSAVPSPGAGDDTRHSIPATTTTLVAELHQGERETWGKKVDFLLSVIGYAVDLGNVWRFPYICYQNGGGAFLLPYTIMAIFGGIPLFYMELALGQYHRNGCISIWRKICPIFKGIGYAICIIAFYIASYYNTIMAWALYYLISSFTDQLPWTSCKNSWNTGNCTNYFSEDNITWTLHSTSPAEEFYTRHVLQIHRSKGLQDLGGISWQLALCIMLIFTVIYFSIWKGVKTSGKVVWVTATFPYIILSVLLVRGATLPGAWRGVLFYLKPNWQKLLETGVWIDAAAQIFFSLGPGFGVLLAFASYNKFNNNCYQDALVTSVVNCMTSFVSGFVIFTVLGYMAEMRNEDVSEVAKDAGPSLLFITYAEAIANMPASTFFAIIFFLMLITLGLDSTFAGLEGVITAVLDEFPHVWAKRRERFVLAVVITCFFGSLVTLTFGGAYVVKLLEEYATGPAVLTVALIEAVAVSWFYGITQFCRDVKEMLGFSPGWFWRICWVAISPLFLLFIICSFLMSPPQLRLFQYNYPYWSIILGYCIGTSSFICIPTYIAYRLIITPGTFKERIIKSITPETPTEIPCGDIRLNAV

Row | Structure (SMILES) | IC50 [1] | IC50 [2] | IC50 [3] | h-α2A pIC50 [1] | h-α2C pIC50 [2] | h-5HTT pIC50 [3]
1 | C/C(=C\c1ccccc1)CN1CCC(Nc2nccn(-c3cccc(N4CCN(c5ccccc5)CC4)c3)c2=O)CC1 [2-27] | 31.6 nM | 20 nM | 200 nM |  |  | 
2 | C/C(=C\c1ccccc1)CN1CCC(Nc2nccn(-c3ccc(N4CCN(c5ccccc5)CC4)cc3)c2=O)CC1 [2-28] | 100 nM | 15.8 nM | 794 nM |  |  | 
3 | C/C(=C\c1ccccc1)CN1CCC(Nc2nccn(CC(=O)N3CCN(c4ccc(C)c(C)c4)CC3)c2=O)CC1 [2-29] | 158 nM | 31.6 nM | 100 nM |  |  | 
4 | C/C(=C\c1ccccc1)CN1CCC(Nc2nccn(CC(=O)N3CCN(Cc4ccccc4)CC3)c2=O)CC1 [2-30] | 79.4 nM | 2 nM | 794 nM |  |  | 
5 | C/C(=C\c1ccccc1)CN1CCC(Nc2nccn(-c3cccc(N4CCN(Cc5ccccc5)CC4)c3)c2=O)CC1 [2-31] | 31.6 nM | 6.31 nM | 398 nM |  |  | 
6 | C/C(=C\c1ccccc1)CN1CCC(Nc2nccn(-c3ccc(C(=O)N4CCN(Cc5ccccc5)CC4)cc3)c2=O)CC1 [2-32] | 200 nM | 12.6 nM | 1260 nM |  |  | 
7 | C/C(=C\c1ccccc1)CN1CCC(Nc2nccn(-c3ccc(C(=O)N4CCN(CCc5ccccc5)CC4)cc3)c2=O)CC1 [2-33] | 126 nM | 15.8 nM | 200 nM |  |  | 
8 | C/C(=C\c1ccccc1)CN1CCC(Nc2nccn(-c3ccc(C(=O)N4CCN(c5ncccn5)CC4)cc3)c2=O)CC1 [2-34] | 100 nM | 5.01 nM | 631 nM |  |  | 
9 | CCOC(=O)N1CCN(C(=O)Cn2ccnc(NC3CCN(C/C(C)=C/c4ccccc4)CC3)c2=O)CC1 [2-35] | 158 nM | 31.6 nM | 2510 nM |  |  | 
10 | CCOC(=O)N1CCN(Cc2cccc(-n3ccnc(NC4CCN(C/C(C)=C/c5ccccc5)CC4)c3=O)c2)CC1 [2-36] | 100 nM | 10 nM | 1580 nM |  |  | 
11 | CCOC(=O)N1CCN(Cc2ccc(-n3ccnc(NC4CCN(C/C(C)=C/c5ccccc5)CC4)c3=O)cc2)CC1 [2-37] | 398 nM | 31.6 nM | 6310 nM |  |  | 
12 | C/C(=C\c1ccccc1)CN1CCC(Nc2nccn(CC(=O)N3CCN(C(=O)C4CCCO4)CC3)c2=O)CC1 (stereo not drawn) [2-38] | 158 nM | 39.8 nM | 7940 nM |  |  | 
13 | C/C(=C\c1ccccc1)CN1CCC(Nc2nccn(CCN3CCOCC3)c2=O)CC1 [2-39] | 316 nM | 20 nM | 7940 nM |  |  | 
14 | C/C(=C\c1ccccc1)CN1CCC(Nc2nccn(CC(=O)N3CCOCC3)c2=O)CC1 [2-41] | 126 nM | 12.6 nM | 3980 nM |  |  | 
15 | C/C(=C\c1ccccc1)CN1CCC(Nc2nccn(-c3cccc(N4CCOCC4)c3)c2=O)CC1 [2-42] | 7.94 nM | 3.16 nM | 794 nM |  |  | 
16 | C/C(=C\c1ccccc1)CN1CCC(Nc2nccn(-c3ccc(N4CCOCC4)cc3)c2=O)CC1 [2-43] | 126 nM | 20 nM | 3980 nM |  |  | 
17 | C/C(=C\c1ccccc1)CN1CCC(Nc2nccn(-c3ccc(CN4CCOCC4)cc3)c2=O)CC1 [2-44] | 50.1 nM | 6.31 nM | 2000 nM |  |  | 
18 | C/C(=C\c1ccccc1)CN1CCC(Nc2nccn(Cc3cccc(CN4CCOCC4)c3)c2=O)CC1 [2-45] | 50.1 nM | 10 nM | 794 nM |  |  | 
19 | C/C(=C\c1ccccc1)CN1CCC(Nc2nccn(-c3ccc(C(=O)N4CCOCC4)cc3)c2=O)CC1 [2-46] | 31.6 nM | 3.98 nM | 794 nM |  |  | 
20 | C/C(=C\c1ccccc1)CN1CCC(Nc2nccn(CCn3cccc3)c2=O)CC1 [2-47] | 200 nM | 31.6 nM | 3980 nM |  |  | 
21 | C/C(=C\c1ccccc1)CN1CCC(Nc2nccn(CN3C(=O)c4ccccc4C3=O)c2=O)CC1 [2-48] | 31.6 nM | 6.31 nM | 158 nM |  |  | 

Row | Structure (SMILES) | IC50 [1] | IC50 [2] | IC50 [3] | h-α2A pIC50 [1] | h-α2C pIC50 [2] | h-5HTT pIC50 [3]
22 | C/C(=C\c1ccccc1)CN1CCC(Nc2nccn(CCN3C(=O)c4ccccc4C3=O)c2=O)CC1 [2-49] | 158 nM | 15.8 nM | 1000 nM |  |  | 
23 | C/C(=C\c1ccccc1)CN1CCC(Nc2nccn(CCCN3C(=O)c4ccccc4C3=O)c2=O)CC1 [2-50] | 31.6 nM | 1 nM | 126 nM |  |  | 
24 | C/C(=C\c1ccccc1)CN1CCC(Nc2nccn(CCCCN3C(=O)c4ccccc4C3=O)c2=O)CC1 [2-51] | 100 nM | 3.98 nM | 158 nM |  |  | 
25 | C/C(=C\c1ccccc1)CN1CCC(Nc2nccn(C/C=C/CN3C(=O)c4ccccc4C3=O)c2=O)CC1 [2-52] | 50.1 nM | 2 nM | 31.6 nM |  |  | 
26 | C/C(=C\c1ccccc1)CN1CCC(Nc2nccn(CC#CCN3C(=O)c4ccccc4C3=O)c2=O)CC1 [2-53] | 200 nM | 3.16 nM | 63.1 nM |  |  | 
27 | C/C(=C\c1ccccc1)CN1CCC(Nc2nccn(CC#CCN3C(=O)c4ccccc4C3=O)c2=O)CC1 [2-54] | 126 nM | 6.31 nM | 50.1 nM |  |  | 
28 | C/C(=C\c1ccccc1)CN1CCC(Nc2nccn(-c3ccc(CN4C(=O)c5ccccc5C4=O)cc3)c2=O)CC1 [2-55] |  |  |  | 6.8 | 8.0 | 6.6
29 | C/C(=C\c1ccccc1)CN1CCC(Nc2nccn(CC(=O)O)c2=O)CC1 [3-1] |  |  |  | 6.6 | 7.4 | <5
30 | C/C(=C\c1ccccc1)CN1CCC(Nc2nccn(-c3cccc(CO)c3)c2=O)CC1 [3-2] | 79.4 nM | 12.6 nM | 5010 nM |  |  | 
31 | C/C(=C\c1ccccc1)CN1CCC(Nc2nccn(-c3ccc(CO)cc3)c2=O)CC1 [3-3] |  |  |  | 6.8 | 7.8 | 5.2
32 | C/C(=C\c1ccccc1)CN1CCC(Nc2nccn(-c3ccc(C(=O)O)cc3)c2=O)CC1 [3-4] | 631 nM | 79.4 nM | > 10000 nM |  |  | 
33 | COCCCn1ccnc(NC2CCN(C/C(C)=C/c3ccccc3)CC2)c1=O [3-6] | 631 nM | 63.1 nM | 3980 nM |  |  | 
34 | COC(=O)Cn1ccnc(NC2CCN(C/C(C)=C/c3ccccc3)CC2)c1=O [3-7] | 100 nM | 10 nM | 7940 nM |  |  | 
35 | COC(=O)CCCCn1ccnc(NC2CCN(C/C(C)=C/c3ccccc3)CC2)c1=O [3-8] | 79.4 nM | 15.8 nM | 794 nM |  |  | 
36 | COc1ccc(-n2ccnc(NC3CCN(C/C(C)=C/c4ccccc4)CC3)c2=O)cc1 [3-9] | 5.01 nM | 7.94 nM | 50.1 nM |  |  | 
37 | COc1cccc(Cn2ccnc(NC3CCN(C/C(C)=C/c4ccccc4)CC3)c2=O)c1 [3-10] | 79.4 nM | 31.6 nM | 794 nM |  |  | 
38 | COc1ccc(Cn2ccnc(NC3CCN(C/C(C)=C/c4ccccc4)CC3)c2=O)cc1 [3-11] | 20 nM | 31.6 nM | 501 nM |  |  | 
39 | COC(=O)c1ccc(-n2ccnc(NC3CCN(C/C(C)=C/c4ccccc4)CC3)c2=O)cc1 [3-12] | 31.6 nM | 15.8 nM | 501 nM |  |  | 
40 | COC(=O)c1cccc(Cn2ccnc(NC3CCN(C/C(C)=C/c4ccccc4)CC3)c2=O)c1 [3-13] | 25.1 nM | 20 nM | 501 nM |  |  | 
41 | COC(=O)c1ccc(Cn2ccnc(NC3CCN(C/C(C)=C/c4ccccc4)CC3)c2=O)cc1 [3-14] | 79.4 nM | 63.1 nM | 794 nM |  |  | 
42 | CCOC(=O)Cn1ccnc(NC2CCN(C/C(C)=C/c3ccccc3)CC2)c1=O [3-16] | 126 nM | 15.8 nM | > 10000 nM |  |  | 
